Laboratory results from patent US5654308A (priority 1990, dated 1997).
Where a name gives a salt, the structure may show the parent alone. Read-outs that look alike come from different tables or passages of the source.

Biological target: T1, acetylcholine esterase (Mus musculus, UniProt P21836)
T1 construct: using a mouse brain homogenate as the acetylcholine esterase source; from tissue; host or cells: mouse brain homogenate
Assay: biochemical

[1] = read-out: AChE inhibiting activity IC50

T1 sequence (P21836 32-614): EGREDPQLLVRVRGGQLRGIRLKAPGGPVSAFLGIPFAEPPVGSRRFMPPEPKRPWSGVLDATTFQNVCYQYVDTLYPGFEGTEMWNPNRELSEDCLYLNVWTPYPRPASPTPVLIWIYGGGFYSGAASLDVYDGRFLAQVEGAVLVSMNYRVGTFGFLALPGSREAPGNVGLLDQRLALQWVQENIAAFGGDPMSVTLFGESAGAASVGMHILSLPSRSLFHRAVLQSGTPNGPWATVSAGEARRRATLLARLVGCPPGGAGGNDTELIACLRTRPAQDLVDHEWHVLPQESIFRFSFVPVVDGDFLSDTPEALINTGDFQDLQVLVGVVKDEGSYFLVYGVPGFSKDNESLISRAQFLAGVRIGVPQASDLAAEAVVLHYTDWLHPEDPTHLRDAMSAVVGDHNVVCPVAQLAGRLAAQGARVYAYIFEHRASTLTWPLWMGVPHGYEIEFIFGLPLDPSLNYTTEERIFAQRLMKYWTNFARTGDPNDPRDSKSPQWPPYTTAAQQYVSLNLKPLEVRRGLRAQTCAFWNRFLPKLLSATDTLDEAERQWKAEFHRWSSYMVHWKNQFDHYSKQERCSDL

Row | SMILES | IC50 | IC50 [1]
1 | CCOc1ccccc1C(=O)C1CC(=O)N(CCC2CCN(Cc3ccccc3)CC2)C1 (centres unmarked) [Example 74] | 27.7 nM | 
2 | C=C1c2ccccc2C(=O)N1CCC1CCN(Cc2ccccc2)CC1 [Example 27] | 45.4 nM | 
3 | O=C1Oc2c(Cl)cc(Cl)cc2CN1CCC1CCN(Cc2ccncc2)CC1 [Example 30] | 29.1 nM | 
4 | Cc1ccc2c(n1)CN(CCC1CCN(Cc3ccccc3)CC1)C(=S)O2 [Example 9, 3-[2-(1-Benzyl-4-piperidyl)ethyl]-2H-3,4-dihydro-6-methylpyrido[2,3-d]-m-oxazine-2-thione hydrochloride] | 8.38 nM | 
5 | O=c1oc2ccc(F)cc2c(=O)n1CCC1CCN(Cc2ccccc2)CC1 [Example 39] | 7.79 nM | 
6 | COc1ccc2oc(=O)n(CCC3CCN(CC4CCCCC4)CC3)c(=O)c2c1 [Example 43] | 2.96 nM | 
7 | O=c1[nH]c2c([N+](=O)[O-])cccc2c(=O)n1CCC1CCN(CC2OCCO2)CC1 [Example 68] |  | 220 nM
8 | COc1ccc2oc(=O)n(CCC3CCN(Cc4cccc(F)c4)CC3)c(=O)c2c1 [Example 53] | 0.18 nM | 
9 | COc1cccc2c1CN(CCC1CCN(Cc3ccccc3)CC1)C(=O)O2 [Example 1, 3-[2-(1-Benzyl-4-piperidyl)ethyl]-5-methoxy-2H-3,4-dihydro-1,3-benzoxazin-2-one hydrochloride] | 0.03 nM | 
10 | COc1ccc2oc(=O)n(CCC3CCN(CC4CCCC4)CC3)c(=O)c2c1 [Example 6, 3-[2-(1-Cyclopentylmethyl-4-piperidyl)-6-methoxy-ethyl]-2H-3,4-dihydro-1,3-benzoxazine-2,4-dione hydrochloride] | 4.86 nM | 
11 | CCOc1ccc(C(=O)C2CC(=O)N(CCC3CCN(Cc4ccccc4)CC3)C2)cc1 (centres unmarked) [Example 75] | 20.8 nM | 
12 | COc1ccc2c(c1)CN(CCC1CCN(Cc3ccccc3)CC1)C(=O)O2 [Example 26] | 0.5 nM | 
13 | COc1ccc2c(c1)CN(CCC1CCN(Cc3cccc(F)c3)CC1)C(=O)O2 [Example 54] | 0.34 nM | 
14 | O=c1[nH]c2ncccc2c(=O)n1CCC1CCN(Cc2ccncc2)CC1 [Example 71] | 137 nM | 
15 | O=c1oc2ccccc2c(=O)n1CCC1CCN(Cc2ccccc2)CC1 [Example 3, 3-[2-(1-Benzyl-4-piperidyl)ethyl]-2H-3,4-dihydro-1,3-benzoxazine-2,4-dione hydrochloride] | 8.52 nM | 
16 | CC1(O)c2nccnc2C(=O)N1CCC1CCN(Cc2ccccc2)CC1 (centres unmarked) [Example 11, 1-[2-{4-[(1-Benzyl)piperidyl]}ethyl]-7-hydroxy-7-methylpiperazino[2,3-c]pyrrolidin-2-one] | 99.6 nM | 
17 | CC(=O)Nc1ccc2c(c1)CN(CCC1CCN(Cc3ccccc3)CC1)C(=O)O2 [Example 36] | 1.17 nM | 
18 | C=C1c2nccnc2C(=O)N1CCC1CCN(Cc2ccccc2)CC1 [Example 12, 1-[2-{4-[(1-Benzyl)piperidyl]}ethyl]-7-methylenepiperazino[2,3-c]pyrrolidin-2-one fumarate] | 1.82 nM | 
19 | Nc1ccc2c(c1)CN(CCC1CCN(Cc3ccccc3)CC1)C(=O)O2 [Example 35] | 1.85 nM | 
20 | Cc1ccc2oc(=O)n(CCC3CCN(Cc4ccccc4)CC3)c(=O)c2c1 [Example 37] | 2.97 nM | 
21 | COc1ccc2c(c1)CN(CCC1CCN(Cc3ccncc3)CC1)C(=O)O2 [Example 4, 3-{2-[1-(4-Pyridylmethyl)-4-piperidyl]ethyl}-6-methoxy-2H-3,4-dihydro-1,3-benzoxazin-2-one dihydrochloride] | 7.93 nM | 
22 | COc1ccc2oc(=O)n(CCC3CCN(CC4OCCO4)CC3)c(=O)c2c1 [Example 7, 3-{2-[1-(1,3-Dioxolan-2-ylmethyl)-4-piperidyl]ethyl}-6-methoxy-2H-3,4-dihydro-1,3-benzoxazine-2,4-dione hydrochloride] | 124 nM | 

Row | SMILES | IC50 | IC50 [1]
23 | O=c1oc2ccc(F)cc2c(=O)n1CCC1CCN(CC2OCCO2)CC1 [Example 40] | 1020 nM | 
24 | COc1ccc2c(c1)CN(CCC1CCN(CC3OCCO3)CC1)C(=O)O2 [Example 5, 3-{2-[1-(1,3-Dioxolan-2-ylmethyl)}-4-piperidine]ethyl}-6-methoxy-2H-3,4-dihydro-1,3-benzoxazin-2-one hydrochloride] |  | 49.5 nM
25 | COc1cc(OC)c2c(c1)OC(=O)N(CCC1CCN(Cc3ccccc3)CC1)C2 [Example 28] | 0.38 nM | 
26 | O=c1[nH]c2nccnc2c(=O)n1CCC1CCN(Cc2ccccc2)CC1 [Example 10, 3-[2-{4 [(1-Benzyl)piperidyl]}ethyl]pyrazino[2,3-d]-pyprimidine-2,4-dione fumarate] | 31.8 nM | 
27 | O=C(c1ccccc1)C1CC(=O)N(C2CCN(Cc3ccccc3)CC2)C1 (centres unmarked) [Example 65] | 34000 nM | 
28 | O=C1CC(Cc2ccccc2)CN1CCC1CCN(Cc2ccccc2)CC1 (centres unmarked) [Example 14, 1-[2-{(4-[(1-Benzyl)piperidyl]}ethyl]-4-benzylpyrrolidin-2-one hydrochloride] | 23.8 nM | 
29 | COc1ccc2oc(=O)n(CCC3CCN(Cc4ccoc4)CC3)c(=O)c2c1 [Example 46] | 11.4 nM | 
30 | O=C(c1ccccc1)C1CC(=O)N(CCC2CCN(Cc3ccccc3)CC2)C1 (centres unmarked) [Example 13, 1-[2-{4-[(1-Benzyl)piperidyl]}ethyl]-4-benzoylpyrrolidin-2-one hydrochloride] |  | 20.3 nM
31 | O=C1CCCc2cccnc2N1CCC1CCN(Cc2ccccc2)CC1 [Example 20] |  | 69.1 nM
32 | COc1ccc2c(c1)CN(CCC1CCN(Cc3ccoc3)CC1)C(=O)O2 [Example 44] |  | 5.04 nM
33 | O=C1Oc2ccc([N+](=O)[O-])cc2CN1CCC1CCN(Cc2ccncc2)CC1 [Example 34] | 13.8 nM | 
34 | COc1cccc2c1OC(=O)N(CCC1CCN(Cc3ccccc3)CC1)C2 [Example 25] | 2.74 nM | 
35 | Cc1ccc2oc(=O)n(CCC3CCN(Cc4ccccc4)CC3)c(=O)c2n1 [Example 64] | 9.11 nM | 
36 | COc1ccc2c(c1)OC(=O)N(CCC1CCN(Cc3ccccc3)CC1)C2 [Example 24] | 1.87 nM | 
37 | COc1ccc2oc(=O)n(CCC3CCN(Cc4ccccc4)CC3)c(=O)c2c1 [Example 38] | 0.7 nM | 
38 | COc1cccc2c1CN(CCC1CCN(CC3OCCO3)CC1)C(=O)O2 [Example 52] | 64.9 nM | 
39 | COc1ccc2c(c1)CN(CCC1CCN(CC3CCCC3)CC1)C(=O)O2 [Example 41] | 4.64 nM | 
40 | O=C1Oc2ccccc2CN1CCC1CCN(Cc2ccccc2)CC1 [Example 2, 3-[2-(1-Benzyl-4-piperidyl)ethyl]-2H-3,4-dihydro-1,3-benzoxazin-2-one hydrochloride] | 4.94 nM | 
41 | O=C1Oc2ccc([N+](=O)[O-])cc2CN1CCC1CCN(Cc2ccccc2)CC1 [Example 31] | 0.58 nM | 
42 | O=C1Nc2ncccc2CN1CCC1CCN(CC2OCCO2)CC1 [Example 66] | 288 nM | 
43 | O=C1Oc2ccc(Cl)cc2CN1CCC1CCN(Cc2ccccc2)CC1 [Example 32] | 1.39 nM | 
44 | COc1ccc2c(c1)CN(CCC1CCN(CC3CCCCC3)CC1)C(=O)O2 [Example 42] | 3.92 nM | 
